Assay results as given in US20130202724A1, “SOYBEAN EXTRACTS FOR THE TREATMENT OF HEPATIC DISORDERS” (Hadasit Medical Research Services and Development Ltd., priority 2010, published 2013).

Key:
[1] = system: ConA-challenged C57BL-6 mice; assay: ConA-induced hepatotoxicity with soybean-derived extracts (Example 6); type: in vivo; details: combinations 1:1, especially 0.3 and 3 μg per mouse
Method: Either two (Example 1 (A)) or three (Example 1 (B)) groups of mice (10 mice per group) were studied. ConA was dissolved in 50 mM Tris (pH 7), 150 mM NaCl, and 4 mM CaCl2. To induce autoimmune hepatitis, mice were injected i.v. with 20 mg/kg ConA. Control mice were injected with PBS. A specified dosage of […] or vehicle was administered to the mice orally […] before (Example 1 (A)) or 30 min after (Example 1 (B)) they had received an injection of ConA. The mice were sacrificed 16 h (Example 1 (A)) or 17 h (Example 1 (B)) later. For Example 4 (ConA challenge in different […] extracts), six groups of 4-5 11-12 weeks old male C57BL/6 mice were treated per os for three days with extracts as show in Table 4. The mice were injected i.v. (tail vein) 500 μg of ConA, (20 mg/kg body weight) and sacrificed 14 h later. After sacrifice measurements of serum IFN-γ was carried out using ELISA. […] Serum ALT and AST activities were determined and serum levels of IFN-γ and TNF-α were measured. […] Serum levels of IFN-γ, TNF-α, and IL-6 were determined by “sandwich” ELISA using commercial kits according to the manufacturer's instructions. […] Serum ALT and AST activities were determined and serum levels of IFN-γ and TNF-α were measured.

[2] = system: HFD-fed mice; assay: HFD obese mouse model with soybean extracts M1, OS and combinations (Example 7); type: in vivo
Method: Five mice per experimental group were fed HFD diet, comprising 42% calories from fat. The mice were administered the indicated extracts per os 3 times a week for three months, and then sacrificed. The mice weight, fasting glucose levels, ALT, serum triglycerides (TGs) and cholesterol were determined every 2 weeks. Glucose Tolerance Test was performed after 4 and 12 weeks. On sacrifice day, serum and a liver biopsy were collected for determination of serum insulin levels, liver TG and for H&E histological analysis.
After sacrifice, measurements of serum ALT and AST activities were carried out, and serum levels of IFN-γ, TNF-α and insulin were determined.
TGs were extracted from aliquots of snap-frozen livers using a modification of the Folch method. Hepatic TG content was assayed spectrophotometrically using a GPO-Trinder kit and was normalized to the protein content in the homogenate.
Plasma TG and total cholesterol were measured by a clinical chemistry analyzer, the Reflovet Plus machine.
Fasting glucose levels were measured after overnight (12 h) fasting. Serum glucose measurements were performed on tail-vein blood by a standard glucometer.
Mice underwent a GTT after overnight fasting. Glucose was administered orally (1.25 g/kg body weight). Serum glucose measurements were performed on tail-vein blood every 15 min for 3 h. Glucose levels were measured by a standard glucometer.
Serum insulin levels were determined using a commercially available ELISA kit (Mercodia), according to the manufacturer's instructions. Serum was collected from euthanized mice on the day of sacrifice (after 12 h fasting) and kept in −80° C. until analysis.
Serum levels of IFN-γ, TNF-α, and IL-6 were determined by “sandwich” ELISA using commercial kits according to the manufacturer's instructions.
Flow cytometry was performed following splenocyte and hepatic lymphocyte isolation using 1×10^6 lymphocytes in 100 μl PBS with 0.1% BSA. For surface staining, cells were incubated with fluorochrome-conjugated antibodies to the indicated cell surface markers at the recommended dilutions or with isotype control antibodies for 30 minutes at 4° C. The following cell surface anti-mouse antibodies were used: CD4/CD3-Pacific Blue, CD25/NK1.1-PE and CD8-FITC. Cells were then washed in PBS containing 1% BSA and fixed with fixation buffer for another 50 minutes. For intracellular staining of Foxp3, fixed cells were permeabilized with Foxp3 staining buffer. Cells were then stained with PE-Cy7-conjugated antibodies to Foxp3, washed twice and resuspended in 250 μl of PBS containing 1% BSA and kept at 4° C. One million stained cells in 250 μl of PBS containing 1% BSA were subsequently analyzed using a FACS LSR II instrument with FCS express V.3 software. Only live cells were counted, and background fluorescence from non-antibody-treated lymphocytes was subtracted.
A HFD obese mouse model was therefore used to assess the hepatoprotective action of the soybean extracts M1, OS and their combinations. Young (6-7 weeks old) male C57BL/6 mice (5 mice per experimental group) were fed HFD diet ad libitum for 12 weeks. The mice were administered the indicated soybean extracts or combinations per os 3 times a week for the duration of the experiment. After 12 weeks, the mice were sacrificed. During the experiment the mice weight, fasting glucose level, ALT, serum triglycerides (TGs) and cholesterol were measured every 2 weeks, and glucose tolerance test was carried out after the fourth and twelfth weeks. On sacrifice day, serum samples and livers were collected. Serum TNF-α and insulin were determined, hepatic TG were measured and a liver section stained with H&E was prepared and analyzed. A FACS analysis of splenic T regulatory and NKT cells was also performed.

## glucosylceramide [GC]
[1]
  hepatic protection (liver enzymes and serum IFN-γ and TNF-α), summary: significant decrease
[2]; HFD model, combinations 1:1, 0.3 μg and 3 μg per mouse
  effectiveness over all tested parameters, summary: effective but not in all tested parameters
[2]; M1/OS mixtures (both doses), GC 25 μg, vs control mice
  fasting glucose levels: significantly lower
[2]; after 12 weeks in HFD, vs control and OS-treated mice
  GTT results: marked improvement
[2]; both M1/OS mixture doses (0.3 μg each and 3 μg each), GC 25 μg
  liver lipid accumulation (H&E stained liver sections): striking improvement
[2]; single agents (M1 3 μg, GC 25 μg), week 12, vs control mice
  hepatic TG levels: no clear effect
[2]; single agents (OS 3 μg, GC 25 μg, M1 3 μg), week 12
  fasting insulin levels: lowest
